Source: US9464064B2, “HCV helicase inhibitors and methods of use thereof” (University of Kansas, priority 2011, dated 2016)
Several values for one entry are separate records, joined by “and”; a condition that tells them apart may be missing. Equal entries are not always repeated. Where two headings read alike, the source gives them in different places.

How the values were obtained:
Huh-7.5 cells = experiment: Cell viability assay ([…]-GLO); format: cell-based, human; details: for Cell viability (% viable): 10 μM compound, triplicate, average ± SD
In short: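 Viability was read by luminescence, integrated for 1 second, after 30 min at 23° C. in […]-GLO reagent mixed equally with growth medium. Before lysis, Huh-7.5 cells had received compound for 72 h and were rinsed with PBS.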

MBHA DNA substrate = experiment: Modified FID assay, SYBR Green I; format: binding; details: for DNA binding (%): SYBR Green I-FID, average (±SD) percent bound at 100 μM
In short: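 Affinity for the MBHA DNA substrate (0.32 μM) estimated by displacement of SYBR Green I (0.68 μM), ethidium bromide omitted. Each compound titrated in triplicate over three independent runs; EC50 from concentration-response fit, reported ± standard deviation.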

[1] = biological target: T1, HCV NS3 helicase NS3h_1b(con1) (Hepatitis C virus genotype 1b, UniProt Q9WMX2); experiment: biochemical; format: biochemical, hepatitis C virus genotype 1b(con1)
T1 construct: truncated C-terminally His-tagged NS3 proteins lacking the N-terminal protease, called NS3h; His-tag (C); made in house
In short: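 Molecular beacon helicase assay with His-tagged recombinant NS3 and a Cy5/IBRQ-labelled partially duplex DNA substrate (25 bp) or Tye665-labelled RNA substrate (19 bp). Reactions started with 1 mM ATP. Screening read fluorescence before and 30 min after ATP (ex 643/em 670 nm). For IC50, 5% v/v DMSO was present, initial velocities came from first-order decay fits, and a Hill equation was applied.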

[2] = SYBR Green, read-out: FID (SG) EC50 (converted)
[3] = MBHA, DNA unwinding, mean ± SD of three titrations, read-out: Helicase IC50
[4] = genotype 1b (con1), read-out: Target Potency MBHA (IC50 avg., μM) 1b (con1)
[5] = standard HCV helicase MBHA (Table 9), read-out: DNA Unwinding IC50
[6] = DNA-based MBHA, genotype 1b, read-out: DNA Helicase NS3h_1b IC50 (μM) ± SD

T1 sequence (Q9WMX2 1192-1657): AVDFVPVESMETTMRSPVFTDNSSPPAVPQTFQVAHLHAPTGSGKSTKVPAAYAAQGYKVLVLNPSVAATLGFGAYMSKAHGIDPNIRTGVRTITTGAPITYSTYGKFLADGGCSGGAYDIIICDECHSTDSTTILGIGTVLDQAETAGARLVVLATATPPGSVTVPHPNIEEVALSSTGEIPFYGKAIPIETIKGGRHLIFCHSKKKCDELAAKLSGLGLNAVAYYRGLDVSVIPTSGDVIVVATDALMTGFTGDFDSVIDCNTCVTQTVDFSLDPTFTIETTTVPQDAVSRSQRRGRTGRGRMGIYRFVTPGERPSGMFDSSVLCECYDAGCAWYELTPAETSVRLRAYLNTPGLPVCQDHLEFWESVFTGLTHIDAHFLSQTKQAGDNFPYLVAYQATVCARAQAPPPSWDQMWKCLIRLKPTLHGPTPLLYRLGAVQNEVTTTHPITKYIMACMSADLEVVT

Cc1ccc2nc(-c3ccc4nc(-c5ccc(NC(=O)c6cc(F)cc(C(F)(F)F)c6)cc5)sc4c3)sc2c1S(=O)(=O)O [Compound 27, 2′-(4-(3-fluoro-5-(trifluoromethyl)benzamido)phenyl)-6-methyl-[2,6′-bibenzo[d]thiazole]-7-sulfonic acid]
Cell Viability (% @ 10 μM) (Huh-7.5 cells): 113 ± 1% | Cell viability (% viable) (Huh-7.5 cells): 113 ± 1% | DNA binding (%) (MBHA DNA substrate): 48 ± 17% | FID (SG) % Displaced @ 100 μM (MBHA DNA substrate; SYBR Green): 48 ± 17% | EC50 (MBHA DNA substrate; [2]): > 100 µM | IC50 [1, 3]: 28 ± 7 µM | IC50 [1, 4]: 28.4 ± 7 µM

Cc1ccc(NC(=O)Nc2ccc(-c3nc4ccc(-c5nc6ccc(C)c(S(=O)(=O)O)c6s5)cc4s3)cc2)cc1 [Compound 28, 6-methyl-2′-(4-(3-(p-tolyl)ureido)phenyl)-[2,6′-bibenzo[d]thiazole]-7-sulfonic acid]
Cell Viability (% @ 10 μM) (Huh-7.5 cells): 93 ± 1% | Cell viability (% viable) (Huh-7.5 cells): 93 ± 1% | EC50 (MBHA DNA substrate; FID, mean ± SD, read-out: DNA Binding (SYBR Green I) EC50): 13 µM | DNA binding (%) (MBHA DNA substrate): 90 ± 9% | FID (SG) % Displaced @ 100 μM (MBHA DNA substrate; SYBR Green): 90 ± 9% | EC50 (MBHA DNA substrate; [2]): 18 µM | IC50 [1, 3]: 5.3 ± 0.9 µM | IC50 [1, 4]: 5.3 ± 0.9 µM | IC50 [1, 5]: 5 ± 1 µM

COc1ccc(S(=O)(=O)Nc2ccc(-c3nc4ccc(-c5nc6ccc(C)c(S(=O)(=O)O)c6s5)cc4s3)cc2)cc1 [Compound 29, 2′-(4-(4-methoxyphenylsulfonamido)phenyl)-6-methyl-[2,6′-bibenzo[d]thiazole]-7-sulfonic acid]
Cell Viability (% @ 10 μM) (Huh-7.5 cells): 75 ± 3% | Cell viability (% viable) (Huh-7.5 cells): 75 ± 3% | DNA binding (%) (MBHA DNA substrate): 69 ± 4% | FID (SG) % Displaced @ 100 μM (MBHA DNA substrate; SYBR Green): 69 ± 4% | EC50 (MBHA DNA substrate; [2]): 42 µM | IC50 [1, 3]: 24 ± 2.2 µM | IC50 [1, 4]: 24.4 ± 2.2 µM | IC50 [1, 5]: 24 ± 2 µM

CC(=O)Nc1ccc(-c2nc3ccc(-c4nc5ccc(C)c(S(=O)(=O)O)c5s4)cc3s2)cc1 [Compound 30, 2′-(4-acetamidophenyl)-6-methyl-[2,6′-bibenzo[d]thiazole]-7-sulfonic acid]
Cell Viability (% @ 10 μM) (Huh-7.5 cells): 102 ± 9% | Cell viability (% viable) (Huh-7.5 cells): 100 ± 6% | DNA binding (%) (MBHA DNA substrate): 48 ± 5% | FID (SG) % Displaced @ 100 μM (MBHA DNA substrate; SYBR Green): 48 ± 5% | EC50 (MBHA DNA substrate; [2]): > 100 µM | IC50 [1, 3]: > 100 µM | IC50 [1, 4]: > 100 µM | IC50 [1, 5]: 227 ± 107 µM

Cc1ccc2nc(-c3ccc4nc(-c5ccc(NC(=O)c6ccc7ccccc7c6)cc5)sc4c3)sc2c1S(=O)(=O)O [Compound 33, 2′-(4-(2-naphthamido)phenyl)-6-methyl-[2,6′-bibenzo[d]thiazole]-7-sulfonic acid]
Cell Viability (% @ 10 μM) (Huh-7.5 cells): 99 ± 11% | DNA binding (%) (MBHA DNA substrate): 64 ± 7% | FID (SG) % Displaced @ 100 μM (MBHA DNA substrate; SYBR Green): 63 ± 11% | EC50 (MBHA DNA substrate; [2]): 25 µM | IC50 [1, 6]: 3 ± 0.7 µM | IC50 [1, 3]: 2.7 ± 0.7 µM | IC50 [1, 4]: 3.6 µM | IC50 [1, 5]: 4 µM

Cc1ccc2nc(-c3ccc4nc(-c5ccc(N(C)C(=O)c6ccc7ccccc7c6)cc5)sc4c3)sc2c1S(=O)(=O)O [Compound 34, 6-methyl-2′-(4-(N-methyl-2-naphthamido)phenyl)-[2,6′-bibenzo[d]thiazole]-7-sulfonic acid]
Cell Viability (% @ 10 μM) (Huh-7.5 cells): 101 ± 9% | DNA binding (%) (MBHA DNA substrate): 35 ± 23% | FID (SG) % Displaced @ 100 μM (MBHA DNA substrate; SYBR Green): 35 ± 23% | EC50 (MBHA DNA substrate; [2]): > 100 µM | IC50 [1, 3]: 14 ± 0.1 µM | IC50 [1, 4]: 14.4 ± 0.04 µM | IC50 [1, 5]: 14 µM

Cc1ccc2nc(-c3ccc4nc(-c5ccc(NC(=O)c6ccc7nc(-c8ccc(N)cc8)sc7c6)cc5)sc4c3)sc2c1S(=O)(=O)O [Compound 35, 2′-(4-(2-(4-aminophenyl)benzo[d]thiazole-6-carboxamido)phenyl)-6-methyl-[2,6′-bibenzo[d]thiazole]-7-sulfonic acid]
Cell Viability (% @ 10 μM) (Huh-7.5 cells): 85 ± 2% | Cell viability (% viable) (Huh-7.5 cells): 85 ± 2% | DNA binding (%) (MBHA DNA substrate): 59 ± 4% | FID (SG) % Displaced @ 100 μM (MBHA DNA substrate; SYBR Green): 59 ± 4% | EC50 (MBHA DNA substrate; [2]): 68 µM | IC50 [1, 6]: 6 ± 2.1 µM | IC50 [1, 3]: 5.5 ± 2.1 µM | IC50 [1, 4]: 5.5 ± 2.1 µM | IC50 [1, 5]: 6 ± 2 µM

Cc1ccc2nc(-c3ccc4nc(-c5ccc(NC(=O)c6ccc7nc(-c8ccc(NC(=O)OCC9c%10ccccc%10-c%10ccccc%109)cc8)sc7c6)cc5)sc4c3)sc2c1S(=O)(=O)O.N [Compound 36]
Cell Viability (% @ 10 μM) (Huh-7.5 cells): 95 ± 3% and 90 ± 4% | Cell viability (% viable) (Huh-7.5 cells): 90 ± 4% | DNA binding (%) (MBHA DNA substrate): 67 ± 5% | FID (SG) % Displaced @ 100 μM (MBHA DNA substrate; SYBR Green): 67 ± 5% | EC50 (MBHA DNA substrate; [2]): 22 µM | IC50 [1, 3]: 4 ± 2.4 µM | IC50 [1, 4]: 4 ± 2.4 µM | IC50 [1, 5]: 4 ± 2 µM

Cc1ccc2nc(-c3ccc(NC(=O)c4ccc(NC(=O)c5ccccc5)cc4)cc3)sc2c1S(=O)(=O)O.N [Compound 40]
Cell Viability (% @ 10 μM) (Huh-7.5 cells): 115 ± 3% | FID (SG) % Displaced @ 100 μM (MBHA DNA substrate; SYBR Green): 18 ± 2% | EC50 (MBHA DNA substrate; [2]): > 100 µM | IC50 [1, 4]: 81.4 ± 22 µM | IC50 [1, 5]: 81 ± 22 µM

Cc1ccc2nc(-c3ccc4nc(-c5ccc(NC(=O)c6ccc(CNC(=O)OCC7c8ccccc8-c8ccccc87)cc6)cc5)sc4c3)sc2c1S(=O)(=O)O.N [Compound 41]
Cell Viability (% @ 10 μM) (Huh-7.5 cells): 102 ± 6% | FID (SG) % Displaced @ 100 μM (MBHA DNA substrate; SYBR Green): 53 ± 25% | EC50 (MBHA DNA substrate; [2]): 56 µM | IC50 [1, 4]: 4.4 ± 0.3 µM | IC50 [1, 5]: 4 µM

Cc1ccc2nc(-c3ccc(NC(=O)c4ccc(NC(=O)OCC5c6ccccc6-c6ccccc65)cc4)cc3)sc2c1S(=O)(=O)O.N [Compound 42]
Cell Viability (% @ 10 μM) (Huh-7.5 cells): 108 ± 2% | FID (SG) % Displaced @ 100 μM (MBHA DNA substrate; SYBR Green): 44 ± 2% | EC50 (MBHA DNA substrate; [2]): > 100 µM | IC50 [1, 4]: 12 ± 3.7 µM | IC50 [1, 5]: 12 ± 4 µM

Cc1ccc2nc(-c3ccc(NC(=O)c4ccc(NC(=S)Nc5ccccc5)cc4)cc3)sc2c1S(=O)(=O)O.N [Compound 43]
Cell Viability (% @ 10 μM) (Huh-7.5 cells): 106 ± 3% | FID (SG) % Displaced @ 100 μM (MBHA DNA substrate; SYBR Green): 37 ± 4% | EC50 (MBHA DNA substrate; [2]): > 100 µM | IC50 [1, 4]: 29 ± 6.9 µM | IC50 [1, 5]: 29 ± 7 µM
